From ChEMBL document CHEMBL4433252, “Bypassing lantibiotic resistance by an effective nisin derivative” (Bioorg Med Chem, 2019)
Values after ≈ are worked out from the molar mass of the structure shown. Active and inactive are the calls of the source. No cut-off for these calls is given here.

Assays:
[1] = system: Lactococcus lactis; experiment: Growth inhibition of Lactococcus lactis NZ9000 transfected with Streptococcus agalactiae COH1 NSR incubated for 5 hrs by spectrophotometry; assay type: functional, organism-based; details: NZ9000, 5 h
[2] = system: Lactococcus lactis; experiment: Growth inhibition of Lactococcus lactis NZ9000 transfected with pNZ-Erm plasmid incubated for 5 hrs by spectrophotometry; assay type: functional, organism-based; details: NZ9000, 5 h
[3] = system: Lactococcus lactis; experiment: Growth inhibition of Lactococcus lactis NZ9000 transfected with Streptococcus agalactiae COH1 NSR S236A mutant incubated for 5 hrs by spectrophotometry; assay type: functional, organism-based; details: NZ9000, 5 h
[4] = system: Staphylococcus aureus; experiment: Potency index, ratio of MIC for nisin to MIC for test compound for antibacterial activity against Staphylococcus aureus ATCC 29213 assessed as reduction in cell viability incubated overnight; assay type: functional
[5] = system: Enterococcus faecalis; experiment: Potency index, ratio of MIC for nisin to MIC for test compound for antibacterial activity against Enterococcus faecalis ATCC 29212 assessed as reduction in cell viability incubated overnight; assay type: functional
[6] = system: Lactococcus lactis; experiment: (§1) Resistance index, ratio of IC50 for growth inhibition of Lactococcus lactis NZ9000 transfected with Streptococcus agalactiae COH1 NSR S236A mutant incubated for 5 hrs by spectrophotometry to IC50 for growth inhibition of Lactococcus lactis NZ9000 transfected with pNZ-Erm plasmid incubated for 5 hrs by spectrophotometry; assay type: functional
[7] = system: Lactococcus lactis; experiment: as §1, with “NSR” for “NSR S236A mutant”; assay type: functional
[8] = system: Lactococcus lactis; experiment: Induction of pore formation in Lactococcus lactis NZ9000 transfected with Streptococcus agalactiae COH1 NSR assessed as increase in florescence intensity at 30 nM measured after 100 secs by sytox green-based fluorescence assay; assay type: functional, organism-based
[9] = system: Enterococcus faecalis; experiment: Antibacterial activity against Enterococcus faecalis ATCC 29212 assessed as reduction in cell viability incubated overnight; assay type: functional
[10] = system: Staphylococcus aureus; experiment: Antibacterial activity against Staphylococcus aureus ATCC 29213 assessed as reduction in cell viability incubated overnight; assay type: functional

## C=C(NC(=O)[C@@H](NC(=O)[C@H](Cc1cnc[nH]1)NC(=O)[C@@H](NC(=O)[C@H](CO)NC(=O)[C@@H]1CCCN1C(=O)[C@H](Cc1cnc[nH]1)NC(=O)[C@@H]1CS[C@@H](C)[C@H](NC(=O)[C@H](CCCCN)NC(=O)[C@H](CCSC)NC(=O)[C@H](CC(N)=O)NC(=O)[C@@H]2CS[C@@H](C)[C@H](NC(=O)[C@H](CCCCN)NC(=O)[C@@H]3CS[C@@H](C)[C@H](NC(=O)[C@@H]4CSC[C@H](NC(=O)/C(=C/C)NC(=O)[C@@H](N)[C@@H](C)CC)C(=O)N[C@@H]([C@@H](C)CC)C(=O)NC(=C)C(=O)N[C@@H](CC(C)C)C(=O)N4)C(=O)N4CCC[C@H]4C(=O)NCC(=O)N3)C(=O)NCC(=O)N[C@@H](C)C(=O)N[C@@H](CC(C)C)C(=O)N[C@@H](CCSC)C(=O)NCC(=O)N2)C(=O)N[C@@H](C)C(=O)N[C@@H](CC)C(=O)N1)[C@@H](C)CC)C(C)C)C(=O)N[C@@H](CCCCN)C(=O)O
[1]
  IC50: 0.0225 µM
[2]
  IC50: 0.0055 µM
[3]
  IC50: 0.0241 µM
[4]
  Ratio: 7.8
[5]
  Ratio: 7.8
[6]
  Ratio IC50: 3.5
[7]
  Ratio IC50: 3.5
[8]
  Activity: Active
[9]
  MIC: 10.6 µM (≈ 35.6 µg/mL)
[10]
  MIC: 10.6 µM (≈ 35.6 µg/mL)
